Assay results as given in article PMC10059125, “The Pharmaceutical Formulation Plays a Pivotal Role in Hydroxytyrosol Pharmacokinetics” (Pharmaceutics, 2023).
Read-outs that look alike come from different tables or passages of the source.

Columns and labels:
[1] = Urinary excretion of DOPET and metabolites in healthy volunteers after oral enteric-coated capsules; type: in vivo, human; conditions: for mean peak in urine: approximately 6 h after oral 15 mg (97.3 µmole) DOPET, n = 20; for cumulative metabolites distribution in urine, mean relative area percentage with respect to all identified and unidentified compounds: 24 h urine, oral 15 mg (97.3 µmole) DOPET
Method: (§1) The study protocol, approved by the local ethics committee (Register Protocol No. 146 17/05/2018), was conducted on 20 healthy Caucasian volunteers, aged 25–60 years with BMI ranging from 19 and 25 kg/m^2, enrolled at the University hospital facility of the Clinical Research Unit of the Department of Biomedicine and Prevention, University of Tor Vergata (Rome, Italy). Two enteric-coated capsules, each containing 7.5 mg of DOPET, were administered orally. All subjects fulfilled the following eligibility criteria: non-smokers, non-alcoholics, healthy diet, and no drugs during the experimental procedure. The administration was preceded by a 4-day washout with polyphenols and an alcoholic-free diet to avoid any interference, and by a 10-h fasting period. The study was conducted in compliance with the Declaration of Helsinki, and the selected subjects agreed to the procedure by reviewing and signing the relevant, informed consensus.
Urine samples were collected at baseline (T0) and, after the intervention, at the following mean times: 3.45, 4.18, 5.14, 6.16, 8.19, 12, and 24 h in sterile, dark polystyrene tubes (100 mL) with screw caps with 10% L-ascorbic acid as a chemical preservative. Both plasma and urine samples were immediately shipped in dry ice to the Department of Chemical, Biological, Pharmaceutical and Environmental Sciences, University of Messina (Italy) for chemical analyses, stored at −80 °C and processed within 48 h.
(§2) Plasma and urine samples were processed, before and after hydrolysis, according to Alemán-Jiménez et al., with some modifications. Briefly, plasma and urine samples were thawed at room temperature and centrifuged (10,000× g for 5 min). Sample supernatants (100 and 400 μL, respectively) were hydrolyzed by incubation with 300 UI (plasma) and 1500 UI (urine) of β-glucuronidase from Helix pomatia for 2 h at 37 °C, clarified with 200 μL of MeOH/HCl (0.2 M) and centrifuged at 10,000× g for 5 min. An SPE clean-up step, by using Strata X-AW cartridges (Phenomenex, Torrance, CA, USA) mounted on VacElut Cartridge Manifolds (Agilent Technologies, Inc., Santa Clara, CA, USA), was carried out. Cartridges were conditioned and equilibrated with 2 mL of MeOH/HCOOH (98:2, v/v) and 2 mL of water/HCOOH (98:2, v/v), respectively. After sample loading, SPE cartridges were washed with water/HCOOH (98:2, v/v). Analytes were eluted with 1 mL of MeOH/HCOOH (98:2, v/v) and dried by a gentle stream of nitrogen at room temperature. Extracts were recovered with 200 μL of the mobile phase used for the LC-DAD-ESI-MS/MS analyses (see Section 2.4). Quality control samples were prepared by spiking DOPET and metabolites (DOPAC, HVA, and MOPET) in baseline control plasma and urine samples at two different concentrations (1.2 ng/mL and 5.3 ng/mL) correspondent to the limit of quantification (LOQ) in plasma and urine samples, respectively. Both precision (CV < 10%) and accuracy (≥90%) recorded in three replicates were acceptable according to ICH and FDA guidelines.
(§3) Plasma and urinary DOPET and metabolites were analyzed by LC-DAD-ESI-MS/MS (Agilent Technologies, Inc., Santa Clara, CA, USA). Chromatographic analysis was carried out by a Luna Omega PS C18 column (150 mm × 2.1 mm, 5 µm; Phenomenex, Torrance, CA, USA) at 25 °C by using a mobile phase consisting of 0.1% HCOOH (Solvent A) and methanol (Solvent B) according to the following elution program: 0–18 min, 5% B; 18–21 min, 95% B; 21–30 min, 5% B; 30–35 min, 5%. The injection volume was 10 µL, and the flow rate was 0.4 mL/min. The UV–Vis spectra were recorded, ranging from 190 to 400 nm, and chromatograms were acquired at 280 nm. […]

[2] = Plasma pharmacokinetics of free DOPET in healthy volunteers after oral enteric-coated capsules (DOPET in EVOO), non-compartmental analysis; type: in vivo, human
Method: as §1
Blood samples were collected into 10 mL test tubes containing EDTA from a subcutaneous vein using a permanent catheter inserted into the forearm at baseline (T0) and 45, 90, 123, 150, 184, 247, 386, and 440 min. Samples were centrifuged at 1700× g for 10 min at 4 °C and the obtained plasma was aliquoted into test tubes containing citric acid (2 M, 10% v/v).
as §2
as §3, with “nm. The experimental parameters of the mass spectrometer (ion trap, model 6320, Agilent Technologies, Santa Clara, CA, USA) equipped with an electrospray ionization interface operating in the negative (ESI−) and positive (ESI+) ionization mode were set as follows: 3.5 kV capillary voltage, 40 psi nebulizer (N2) pressure, 350 °C drying gas temperature, 9 L/min drying gas flow, and 40 V skimmer voltage. The acquisition was carried out in full-scan mode (90–1000 m/z).” for “nm.”

[3] = design: method as in doi:10.1016/j.foodchem.2011.07.101; conditions: after chronic or acute consumption of olive leaf supplements, 55 healthy young adults; cited from earlier work
[4] = design: method as in PMID 28452954; conditions: in vitro; cited from earlier work
[5] = design: method as in doi:10.1016/j.jff.2016.02.046; conditions: cited from earlier work
[6] = design: method as in PMID 32524230; conditions: 5 mg DOPET conveyed in EVOO, 20 volunteers; cited from earlier work
[7] = design: method as in PMID 23766098; conditions: cited from earlier work; for Cmax: olive leaf extract
[8] = design: method as in PMID 20045462; conditions: single oral dose 2.5 mg/kg b.w., 10 subjects; cited from earlier work
[9] = design: method as in PMID 10692578; conditions: 24 h; enriched olive oils, 6 healthy male volunteers; cited from earlier work
[10] = design: method as in PMID 12765992; conditions: 25 mL of EVOO, 6 healthy volunteers; cited from earlier work
[11] = design: method as in PMID 17870451; conditions: 100 g of olives containing 76.73 mg of DOPET, 7 healthy men; cited from earlier work
[12] = human, mean, n = 20, free DOPET in plasma, oral 15 mg DOPET (2 cps)

COc1cc(CC(=O)O)ccc1O [HVA, homovanillic acid]
mean peak in urine [1]: 18.39 µmol

COc1cc(CCO)ccc1O [MOPET, 4-hydroxy-3-methoxyphenethanol]
cumulative metabolites distribution in urine, mean relative area percentage with respect to all identified and unidentified compounds [1]: 0.94%
mean peak in urine [1]: 0.44 µmol

O=C(O)Cc1ccc(O)c(O)c1 [DOPAC, 3,4-dihydroxyphenylacetic acid]
cumulative metabolites distribution in urine, mean relative area percentage with respect to all identified and unidentified compounds [1]: 13.48%
mean peak in urine [1]: 9.93 µmol

OCCc1ccc(O)c(O)c1 [DOPET, 3,4-dihydroxyphenyl ethanol]
bioavailability compared with the literature ([2]; enteric-coated capsule, DOPET in EVOO, versus previous results at the same dose administered): about 2.5 times
Cmax ([2]; human, plasma, po, 15 mg, mean, n = 20, free DOPET in plasma, oral 15 mg DOPET (2 cps), read-out: Cmax): 5.5 ng/mL
Tmax [2, 12]: 2.05 h
half-life [2, 12]: 2.51 h
AUCextrap_pred ([2]; mean, n = 20, fraction of total AUC due to extrapolated AUC, oral 15 mg DOPET): 18.23%
Cmax ([2]; mean, n = 20, free DOPET in plasma, oral 15 mg DOPET (2 cps)): 5.48 ng/mL
detection in urine samples [3]: neither oleuropein nor DOPET was detected
genotoxicity or mutagenicity [4]: does not exhibit any genotoxicity or mutagenicity
urine levels of DOPET and its metabolites, share of the DOPET administered ([5]; 5 mg of DOPET/day for one week): 21%
urine levels of DOPET and its metabolites, share of the DOPET administered ([5]; 25 mg of DOPET/day for one week): 28%
forms of DOPET excreted in urine ([5]; 5 or 25 mg of DOPET/day for one week): 0–0.02%
cumulative metabolites distribution in urine, mean relative area percentage with respect to all identified and unidentified compounds [1]: 8.49%
mean peak in urine [1]: 4.67 µmol
Cmax [6]: 3.79 ng/mL
time to Cmax [6]: 30 min
Cmax ([7]; capsule matrix): 56 ng/mL
Cmax ([7]; liquid matrix): 59 ng/mL
decrease of Tmax ([7]; passing from encapsulated to the liquid formulation): about 30 min
Cmax [8]: 1110 nM
time of maximum plasma concentration [8]: 13 min
urine excretion with respect to the dose administered [9]: 29–40%
Cmax [10]: 25.83 ng/mL
Tmax [10]: 0.967 h
plasma concentration at Cmax [11]: 3150 ng/mL
time to Cmax [11]: 1 h

C/C=C1/[C@H](O[C@@H]2O[C@H](CO)[C@@H](O)[C@H](O)[C@H]2O)OC=C(C(=O)OC)[C@H]1CC(=O)OCCc1ccc(O)c(O)c1 [oleuropein]
detection in urine samples [3]: neither oleuropein nor DOPET was detected

OCCc1ccc(O)cc1 [tyrosol]
urine excretion with respect to the dose administered [9]: 21–24%
